These results are taken from paper PMC8427247, “Actinobacillus utilizes a binding protein–dependent ABC transporter to acquire the active form of vitamin B6” (The Journal of Biological Chemistry, 2021).

One test concerns AfuA H205A. Details: method as in PMID 26295949. Conditions: AfuA H205A mutant; cited from earlier work.
The subject of a further test is AfuA D206A. Details: method as in PMID 26295949. Conditions: AfuA D206A mutant; cited from earlier work.
Test [1] concerns the target T1, P5PA WT (Actinobacillus pleuropneumoniae, UniProt B0BUC2). Briefly: Isothermal titration calorimetry (ITC), ligand titrated into P5PA. In kind it is binding. Here is the method: The purification method described in the P5PA protein purification section was modified as follows in order to purify apo-P5PA for ITC. Before elution, P5PAwas denatured in the gravity column. To denature P5PA, 6 M guanidine hydrochloride (GdHCl) was applied to the column, after which a refolding step was performed by stepwise addition of 4.5 M GdHCl, 3 M GdHCl, and finally 1.5 M GdHCl. The protein was then washed with lysis buffer and eluted with elution buffer ([15]). The subsequent purification steps were the same as previously described.
ITC was performed using an auto-iTC200 (Microcal) at the Structure and Biophysical Core Facility within the Peter Gilgan Centre for Research & Learning (Hospital for Sick Children, Toronto, Canada). Runs consisted of titrating ligand loaded into the injection syringe against purified protein, which was loaded into the sample cell. About 45 μM of purified P5PA was stored in ITC buffer (20 mM Tris, pH 8, and 100 mM NaCl) at 4 °C. The same buffer was used to make solutions of 300 μM G6P, 300 μM P5P, and 45 μM bovine serum albumin. P5PA, bovine serum albumin, and ITC buffer alone were titrated with P5P or G6P. The parameter setting was 2 μl/injection for a total of 20 injections. Data applied to calculate binding constants were referenced against runs performed with ligand alone to control for the heat of ligand solvation.
On the technique in general: ITC needs no label: the signal is the heat of the interaction.

Test [2] has as its target T1, P5PA WT. In words: Microscale thermophoresis (MST) with fluorescently labeled P5PA. In kind it is binding. Here is the method: (§1) P5PA was fluorescently labeled using RED-NHS Second Generation Protein Labeling Kit (NanoTemper). Briefly, 90 μl of purified apo-P5PA at 10 μM was mixed with 10 μl of the provided labeling dye at 300 μM. The mixture was incubated in dark for 30 min and loaded to a special gravity column that is pre-equilibrated in PBS with 0.05% Tween-20 (PBST). After washing the column with 550 μl of PBST, another 450 μl of PBST was added to elute the fluorescently labeled apo-P5PA. The yield of the labeled P5PA was determined by 280-nm readings made on a Nanodrop.
(§2) A target compound was successively diluted in PBST by a dilution factor of two to make a total of 16 different concentrations. Then, 10 μl of the labeled P5PA was added to an equal volume of the diluted compounds and loaded to standard capillaries (NanoTemper). The Binding Affinity Mode of Monolith NT.115 (NanoTemper) was used to detect fluorescence changes and deduct Kd.
(§3) Supplementary Table2. The concentrations of protein and compounds used in MST
(§4) Labeled Protein Concentration Compound Highest Working
(§5) P5PA 25 Pyridoxal-5’-phosphate (P5P) 1.40 µM
(§6) P5PA 25 Pyridoxamine (PM) 448 mM
In general terms: MST reads how a fluorescent partner responds to local heating, with and without ligand.

A further test deals with AfuA E229A. Details: method as in PMID 26295949. The following applies: AfuA E229A mutant; cited from earlier work.
The subject of test [3] is E. coli K-12 ΔpdxB mutant. Briefly: E. coli growth assay in M9 minimal media supplemented with P5P. In kind it is cell-based, Escherichia coli. As to the method:
The ΔpdxB mutant of E. coli K-12 strain was obtained from the Keio collection ([45]). The ΔpdxB mutant was transformed with either pSC101, pSC101-P5PAB, or pSC101-P5PAB + AfuC and grown in LB broth overnight at 37 °C with shaking. The starters were then washed twice with M9 medium and inoculated at an absorbance of 0.05 at 600 nm into M9 medium supplemented with P5P. The P5P concentrations used were 0, 1, 2.5, and 5 μM. Growth assays were performed in both culture tubes and 100-well microplates ([15], [17]). For cell growth in culture tubes, 5 ml of P5P-supplemented M9 was used, and readings of absorbance at 600 nm were measured after a 23-h incubation at 37 °C with shaking. For cell growth in 100-well microplates, 200 μl of P5P-supplemented M9 was applied to each well, and microplates were incubated in a Bioscreen C microplate reader (Growth Curves USA) at 37 °C with shaking. Absorbance values at 600 nm were measured every 15 min for a time course of 40 h.

For another test, the target named is T2, P5PA H203A (Actinobacillus pleuropneumoniae, UniProt B0BUC2, H229A).
T2 sequence (B0BUC2 26-343 H229A): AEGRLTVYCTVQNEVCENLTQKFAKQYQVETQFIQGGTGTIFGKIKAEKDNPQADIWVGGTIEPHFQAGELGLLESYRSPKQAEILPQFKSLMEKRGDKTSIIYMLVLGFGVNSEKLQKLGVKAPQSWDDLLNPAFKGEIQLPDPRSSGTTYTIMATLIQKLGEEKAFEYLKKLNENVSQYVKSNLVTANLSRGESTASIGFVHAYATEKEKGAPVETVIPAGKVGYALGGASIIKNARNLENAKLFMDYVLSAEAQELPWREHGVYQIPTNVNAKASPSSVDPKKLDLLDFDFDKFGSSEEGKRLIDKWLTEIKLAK
Briefly: Microscale thermophoresis (MST) with fluorescently labeled P5PA mutant. In kind it is binding. Here is the method: as §1, §2, §3, §4, §5, §6

Another test addresses T3, P5PA T149A (Actinobacillus pleuropneumoniae, UniProt B0BUC2, T175A).
T3 sequence (B0BUC2 26-343 T175A): T2 sequence (B0BUC2 26-343 H229A)
The description is as above. In kind it is binding. Here is the method: as §1, §2, §3, §4, §5, §6

The target in the next test is T4, P5PA Y103A (Actinobacillus pleuropneumoniae, UniProt B0BUC2, Y129A).
T4 sequence (B0BUC2 26-343 Y129A): T2 sequence (B0BUC2 26-343 H229A)
Described as above. In kind it is binding. Here is the method: as §1, §2, §3, §4, §5, §6

For test [4], the system named is A. pleuropneumoniae pdxS and pdxT disrupted mutants. On the set-up: method as in PMID 28448619. Conditions: supplementation with 10 μM P5P; cited from earlier work.
In test [5] the test system is WT strain of E. coli K-12. In words: E. coli growth assay in M9 minimal media supplemented with P5P. Conditions: P5P 0 to 10 μM, 24 h incubation. In kind it is cell-based, Escherichia coli.
Where [6] appears, read: MST, P5PA WT, n = 3, read-out: Kd.

For `O=C[C@H](O)[C@@H](O)[C@H](O)[C@H](O)COP(=O)(O)O` [G6P, glucose-6-phosphate], the binding affinity result with AfuA H205A, in the test on AfuA D206A and with AfuA E229A was “undetectable” in each case. Besides, on P5PA WT [1] (ITC, 300 μM ligand into 45 μM P5PA), the binding activity result is “no significant binding activity”. Further, the “released heat for each titration” value on P5PA WT [1] (ITC, 300 μM ligand into 45 μM P5PA, insufficient to calculate a dissociation constant) is “approximately 3 kJ/mol”. Moreover, the Kd on P5PA WT [2] (setting [6]) is 11000 ± 3000 µM.
Regarding `Cc1ncc(COP(=O)(O)O)c(C=O)c1O` [P5P, pyridoxal-5′-phosphate], the “growth defects of the four transformants and the ΔpdxB mutant” value in [3] (M9, P5P at 5 μM) is recorded as “partially restored”. The “growth of ΔpdxB mutant expressing pSC101-P5PAB + AfuC” value in [3] (M9, P5P at 1 and 2.5 μM, p < 0.01, two-tailed t test) is “rescued”. For the same compound, the “growth of ΔpdxB mutant” value in test [3] (M9 minimal media, P5P 0 to 10 μM, 24 h incubation) was “severe growth deficiency in all conditions except P5P concentrations of 5 and 10 μM”. For the same compound, the Kd on P5PA H203A came to 10 ± 4 µM; on P5PA T149A, 1.3 ± 0.3 µM; at P5PA Y103A it was 17 ± 8 µM; at P5PA WT [1] it was 0.036 ± 0.007 µM; at P5PA WT [2], 0.028 ± 0.015 µM. Moreover, the “growth of pdxS/pdxT mutants” value in test [4] is reported as “rescued growth”. Moreover, the “growth of WT strain” value in [5] is on record as “not affected by the concentration of supplemented P5P”.
Consider `Cc1ncc(CO)c(C=O)c1O` [PL, pyridoxal], for which the Kd at P5PA WT [2] (setting [6]) was 13000 ± 4000 µM.
Same read-out and setting: the same measure for `Cc1ncc(CO)c(CN)c1O` [PM, pyridoxamine]: 8000 ± 4000 µM.

In general, Kd refers to the free concentration of one partner at which half of the binding sites on the other are occupied at equilibrium, for simple one-to-one binding.
